Laboratory results as given in US12503475B2 (Centessa Pharmaceuticals (UK) Limited, priority 2020, dated 2025).
Where two headings read alike, the source gives them in different places.

Tests used:
[1] = molecular target: T1, human orexin type 2 receptor (hOX2R) (Homo sapiens, UniProt O43614); experiment: Measurement of orexin type 2 receptor agonist activity (FLIPR calcium fluorescence); format: cell-based; settings: CHO cells expressing hOX2R, FLIPR calcium fluorescence; for EC50: read-out: hOx2 pEC50 (converted); for Emax: CHO, read-out: hOx2 Emax (%)
T1 construct: expressed in transfected cells
T1 sequence (O43614 1-444): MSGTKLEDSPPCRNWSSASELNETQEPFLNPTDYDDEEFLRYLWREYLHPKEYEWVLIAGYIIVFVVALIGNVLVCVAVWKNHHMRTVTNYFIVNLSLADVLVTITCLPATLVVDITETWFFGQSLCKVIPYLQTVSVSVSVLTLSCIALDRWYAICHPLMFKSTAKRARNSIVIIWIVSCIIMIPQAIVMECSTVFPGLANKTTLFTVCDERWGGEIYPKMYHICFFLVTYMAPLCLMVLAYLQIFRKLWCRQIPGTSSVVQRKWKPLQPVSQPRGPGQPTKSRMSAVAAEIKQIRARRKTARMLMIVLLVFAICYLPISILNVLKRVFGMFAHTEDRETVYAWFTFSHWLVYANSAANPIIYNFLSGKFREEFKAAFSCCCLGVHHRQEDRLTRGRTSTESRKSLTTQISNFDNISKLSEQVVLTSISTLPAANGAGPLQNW
Summary of the method: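 Agonism was read as fluorescence in cells stably expressing human OX2R. E. is the response at 10 μM relative to orexin A as full agonist (100%).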

[2] = system: wild type (WT) colony mates; experiment: Wake promoting efficacy, piezoelectric sleep/wake monitoring, wild type mice; format: in vivo, mouse; settings: oral dose 30 mg/kg, dosed 5 h after light onset
Source text: (§1) Wake-promoting efficacy of the compounds of the present disclosure may be evaluated in a model (e.g., the B6.Cg-Tg(HCRT-MJD)1Stak/J (Atax) mouse model of NT1 and wild type (WT) colony mates). The model (e.g., mouse model) may be monitored for rapid, non-invasive classification of sleep and wakefulness by unsupervised machine learning on physiologically relevant readouts, such as body movement and breath rate, after dosing of a compound of the present disclosure (e.g., oral dosing).
(§2) Wake-promoting efficacy was evaluated in the B6.Cg-Tg(HCRT-MJD)1Stak/J (Atax) mouse model of NT1 and wild type (WT) colony mates. Mice were monitored in home cages using piezoelectric sensors for rapid, non-invasive classification of sleep and wakefulness by unsupervised machine learning on physiologically relevant readouts, such as body movement and breath rate. Piezoelectric detection is highly correlated with conventional time-intensive electroencephalogram/electromyography measures of sleep/wake states in both WT and NT1 mice. In a counterbalanced design, mice were orally dosed at 5 h after light onset with test articles at 0 (vehicle), 3 and 30 mg/kg.

[3] = system: B6.Cg-Tg(HCRT-MJD)1Stak/J (Atax) mouse model of NT1; experiment: Wake promoting efficacy, piezoelectric sleep/wake monitoring, Atax mice; format: in vivo; settings: dosed 5 h after light onset
Source text: as §1, §2

mouse models = settings: cited from earlier work
individuals with NT1 = settings: cited from earlier work

Row | EC50 [1] | Emax [1] | Structure (SMILES) | Wake % time 1 h post dose (increase from vehicle) ([3]; oral dose 3 mg/kg) | Wake % time 1 h post dose (increase from vehicle) ([3]; oral dose 30 mg/kg) | further results
1 |  |  | CS(=O)(=O)N[C@@H]1[C@H](Cc2cccc(-c3ccccc3)c2F)N(C(=O)[C@H]2CCO2)CC12CC2 (single isomer, unassigned) [Example 21] | 17.5% | 27.9% | Wake % time 1 h post dose (increase from vehicle) [2]: 14.4%
2 | 0.0794 to 1 nM | 90 to 100% | O=C([C@H]1CCO1)N1CC2(CC2)[C@H](NS(=O)(=O)C(F)F)[C@@H]1Cc1cccc(-c2cc(F)cc(F)c2)c1F [Compound 175] | 25.3% | 29% | 
3 |  |  | COC(=O)N1CCC[C@H](NS(C)(=O)=O)[C@@H]1CO[C@H]1CC[C@@H](c2ccccc2)CC1 [TAK-925] |  |  | wakefulness (mouse models; subcutaneous, WT mice): modestly increased wakefulness; cataplexy (individuals with NT1): trends for decreasing cataplexy; wakefulness (individuals with NT1): substantial levels of increased wakefulness
4 |  |  | COc1ccc(-c2cccc(C(=O)N(C)C)c2)cc1S(=O)(=O)Nc1cccc(NCCNC(=O)c2ccccc2N(C)C)c1 [YNT-185] |  |  | sleep-onset REM periods and cataplexy-like events (mouse models; NT1 mouse model): decrease sleep-onset REM periods and cataplexy-like events; wakefulness (mouse models; intraperitoneally or ICV, wild type (WT) and orexin ligand-deficient mice): modestly increases wakefulness
5 | 1 to 10 nM | 90 to 100% | CC(C)(O)C(=O)N1CC2(CC2)[C@H](NS(=O)(=O)CF)[C@@H]1Cc1cccc(-c2ccccc2)c1F [Compound 134, 1-fluoro-N-((6S,7S)-6-((2-fluoro-[1,1′-biphenyl]-3-yl)methyl)-5-(2-hydroxy-2-methylpropanoyl)-5-azaspiro[2.4]heptan-7-yl)methanesulfonamide] |  |  | 
6 | 0.0794 to 1 nM | 90 to 100% | O=C([C@H]1CCO1)N1CC2(CC2)[C@H](NS(=O)(=O)C(F)F)[C@@H]1Cc1cccc(-c2cccc(F)c2)c1F [Compound 154, N-((6S,7S)-6-((2,3′-difluoro-[1,1′-biphenyl]-3-yl)methyl)-5-((R)-oxetane-2-carbonyl)-5-azaspiro[2.4]heptan-7-yl)-1,1-difluoromethanesulfonamide] | 24.4% | 24.5% | 
7 | 1 to 10 nM | 90 to 100% | O=C([C@H]1CCO1)N1CC2(CC2)[C@H](NS(=O)(=O)C(F)F)[C@@H]1Cc1cc(F)cc(-c2cccc(F)c2)c1F [Compound 176, 1,1-difluoro-N-((6S,7S)-5-((R)-oxetane-2-carbonyl)-6-((2,3′,5-trifluoro-[1,1′-biphenyl]-3-yl)methyl)-5-azaspiro[2.4]heptan-7-yl)methanesulfonamide] |  |  | 
8 | 1 to 10 nM | 90 to 100% | C[C@]1(C(=O)N2CC3(CC3)[C@H](NS(=O)(=O)CF)[C@@H]2Cc2cccc(-c3ccccc3)c2F)CCO1 [Compound 202, 1-fluoro-N-((6S,7S)-6-((2-fluoro-[1,1′-biphenyl]-3-yl)methyl)-5-((R)-2-methyloxetane-2-carbonyl)-5-azaspiro[2.4]heptan-7-yl)methanesulfonamide] |  |  | 

Row | Structure (SMILES) | EC50 [1] | Emax [1] | Wake % time 1 h post dose (increase from vehicle) ([3]; oral dose 3 mg/kg) | Wake % time 1 h post dose (increase from vehicle) ([3]; oral dose 30 mg/kg) | further results
9 | O=C([C@H]1CCO1)N1CC2(CC2)[C@H](NS(=O)(=O)CF)[C@@H]1Cc1cc(F)cc(-c2ccccc2)c1F [Compound 145, N-((6S,7S)-6-((2,5-difluoro-[1,1′-biphenyl]-3-yl)methyl)-5-((R)-oxetane-2-carbonyl)-5-azaspiro[2.4]heptan-7-yl)-1-fluoromethanesulfonamide] | 0.0794 to 1 nM | 90 to 100% |  |  | Wake % time 1 h post dose (increase from vehicle) ([2]; 30 mg/kg): 25.8%; Wake % time 1 h post dose (increase from vehicle) ([2]; listed as 59, 30 mg/kg): 21.1%; Wake % time 1 h post dose (increase from vehicle) ([3]; oral dose 3 mg/kg, 3 mg/kg): 26.9%; Wake % time 1 h post dose (increase from vehicle) ([3]; oral dose 3 mg/kg, listed as 59, 3 mg/kg): 35.5%; Wake % time 1 h post dose (increase from vehicle) ([3]; oral dose 30 mg/kg, 30 mg/kg): 28.3%; Wake % time 1 h post dose (increase from vehicle) ([3]; oral dose 30 mg/kg, listed as 59, 30 mg/kg): 48.6%
10 | CCS(=O)(=O)N[C@@H]1[C@H](Cc2cccc(-c3cccc(F)c3)c2F)N(C(=O)[C@H]2CCO2)CC12CC2 [Compound 129, N-((6S,7S)-6-((2,3′-difluoro-[1,1′-biphenyl]-3-yl)methyl)-5-((R)-oxetane-2-carbonyl)-5-azaspiro[2.4]heptan-7-yl)ethanesulfonamide] | 0.0794 to 1 nM | 90 to 100% |  | 25.0% | Wake % time 1 h post dose (increase from vehicle) [2]: 19.3%
11 | O=C([C@H]1CCO1)N1CC2(CC2)[C@H](NS(=O)(=O)C(F)F)[C@@H]1Cc1cccc(-c2ccccc2)c1F [Compound 144, 1,1-difluoro-N-((6S,7S)-6-((2-fluoro-[1,1′-biphenyl]-3-yl)methyl)-5-((R)-oxetane-2-carbonyl)-5-azaspiro[2.4]heptan-7-yl)methanesulfonamide] | 0.0794 to 1 nM | 90 to 100% | 26.7% | 29.2% | Wake % time 1 h post dose (increase from vehicle) [2]: 27.2%
